# Experimental data from ChEMBL document CHEMBL3232708, “Discovery of a tetracyclic quinoxaline derivative as a potent and orally active multifunctional drug candidate for the treatment of neuropsychiatric and neurological disorders” (J Med Chem, 2014).
# Calls of active or inactive are those of the source. No cut-off for these calls is given here.
# Assays:
# [1] = molecular target: 5-hydroxytryptamine receptor 2A (Homo sapiens, UniProt P28223); test: biochemical; type: cell-based, HEK293E
# Description: Displacement of [125]DOI from human recombinant full length 5HT2A receptor expressed in HEK293E cells
# [2] = Selectivity ratio of Ki for rat recombinant dopamine D2 short receptor to Ki for human recombinant full length 5HT2A receptor
# [3] = molecular target: T1, 5-hydroxytryptamine receptor 1A (Homo sapiens, UniProt P08908); test: Inhibition of human 5HT1A receptor
# T1 sequence (P08908 whole entry): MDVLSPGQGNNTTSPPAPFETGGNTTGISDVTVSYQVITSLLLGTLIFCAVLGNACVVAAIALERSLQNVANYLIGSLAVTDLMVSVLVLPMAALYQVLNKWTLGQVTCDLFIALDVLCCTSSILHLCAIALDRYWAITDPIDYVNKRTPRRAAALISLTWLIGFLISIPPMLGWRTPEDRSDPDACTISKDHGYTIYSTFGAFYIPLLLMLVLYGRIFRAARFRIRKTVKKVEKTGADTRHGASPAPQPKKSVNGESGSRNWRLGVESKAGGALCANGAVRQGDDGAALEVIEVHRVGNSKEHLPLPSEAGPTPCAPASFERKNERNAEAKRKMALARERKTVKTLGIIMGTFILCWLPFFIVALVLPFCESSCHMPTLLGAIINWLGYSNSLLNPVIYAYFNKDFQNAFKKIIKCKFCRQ
# [4] = molecular target: T2, Alpha-1B adrenergic receptor (Homo sapiens, UniProt P35368); test: Inhibition of adrenergic alpha1B receptor (unknown origin)
# T2 sequence (P35368 whole entry): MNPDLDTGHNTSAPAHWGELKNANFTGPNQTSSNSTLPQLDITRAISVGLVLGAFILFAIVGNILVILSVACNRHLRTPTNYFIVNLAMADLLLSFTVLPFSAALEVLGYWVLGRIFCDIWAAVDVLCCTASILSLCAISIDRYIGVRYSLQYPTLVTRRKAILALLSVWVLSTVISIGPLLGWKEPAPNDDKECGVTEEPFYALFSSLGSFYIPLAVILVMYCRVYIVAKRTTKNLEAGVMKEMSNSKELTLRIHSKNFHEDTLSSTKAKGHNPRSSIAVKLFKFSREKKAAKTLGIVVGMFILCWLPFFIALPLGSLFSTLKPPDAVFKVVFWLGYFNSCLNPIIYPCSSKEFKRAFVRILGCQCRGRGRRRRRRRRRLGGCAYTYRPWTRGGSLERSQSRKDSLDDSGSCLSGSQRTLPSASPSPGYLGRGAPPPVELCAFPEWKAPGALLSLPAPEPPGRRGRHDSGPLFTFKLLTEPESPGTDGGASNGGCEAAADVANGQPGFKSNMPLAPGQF
# [5] = system: Rattus norvegicus; test: Inhibition of quipazine-induced head twitches in po dosed rat head twitch model administered 25 mins prior to quipazine challenge measured after 30 mins; type: functional
# [6] = molecular target: T3, Alpha-1A adrenergic receptor (Homo sapiens, UniProt P35348)
# T3 sequence (P35348 whole entry): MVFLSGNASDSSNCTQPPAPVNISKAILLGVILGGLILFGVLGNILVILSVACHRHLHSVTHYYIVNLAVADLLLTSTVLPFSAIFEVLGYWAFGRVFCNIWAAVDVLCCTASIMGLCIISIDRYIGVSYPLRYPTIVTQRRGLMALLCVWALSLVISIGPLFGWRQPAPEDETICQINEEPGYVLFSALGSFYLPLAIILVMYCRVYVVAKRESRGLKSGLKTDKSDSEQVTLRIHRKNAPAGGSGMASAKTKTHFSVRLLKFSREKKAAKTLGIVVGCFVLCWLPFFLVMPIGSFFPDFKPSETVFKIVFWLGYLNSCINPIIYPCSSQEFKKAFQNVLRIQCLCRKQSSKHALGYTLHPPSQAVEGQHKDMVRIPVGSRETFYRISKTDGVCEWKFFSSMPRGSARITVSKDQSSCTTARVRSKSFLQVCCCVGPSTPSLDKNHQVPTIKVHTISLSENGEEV
# [7] = molecular target: T4, D(4) dopamine receptor (Homo sapiens, UniProt P21917)
# T4 sequence (P21917 whole entry): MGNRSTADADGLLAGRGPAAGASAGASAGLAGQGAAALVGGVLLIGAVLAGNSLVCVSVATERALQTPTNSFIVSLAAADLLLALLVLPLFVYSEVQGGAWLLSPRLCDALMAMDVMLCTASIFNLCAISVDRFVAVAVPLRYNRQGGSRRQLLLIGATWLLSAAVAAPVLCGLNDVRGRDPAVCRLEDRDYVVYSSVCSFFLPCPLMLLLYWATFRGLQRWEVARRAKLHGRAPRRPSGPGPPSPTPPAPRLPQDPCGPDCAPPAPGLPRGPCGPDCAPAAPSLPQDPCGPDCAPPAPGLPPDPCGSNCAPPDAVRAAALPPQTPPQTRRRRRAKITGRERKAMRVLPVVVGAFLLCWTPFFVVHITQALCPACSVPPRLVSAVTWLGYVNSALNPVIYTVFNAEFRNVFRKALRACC
# Description: Inhibition of human dopamine D4 receptor
# [8] = molecular target: T5, 5-hydroxytryptamine receptor 2C (Homo sapiens, UniProt P28335); test: biochemical
# T5 sequence (P28335 whole entry): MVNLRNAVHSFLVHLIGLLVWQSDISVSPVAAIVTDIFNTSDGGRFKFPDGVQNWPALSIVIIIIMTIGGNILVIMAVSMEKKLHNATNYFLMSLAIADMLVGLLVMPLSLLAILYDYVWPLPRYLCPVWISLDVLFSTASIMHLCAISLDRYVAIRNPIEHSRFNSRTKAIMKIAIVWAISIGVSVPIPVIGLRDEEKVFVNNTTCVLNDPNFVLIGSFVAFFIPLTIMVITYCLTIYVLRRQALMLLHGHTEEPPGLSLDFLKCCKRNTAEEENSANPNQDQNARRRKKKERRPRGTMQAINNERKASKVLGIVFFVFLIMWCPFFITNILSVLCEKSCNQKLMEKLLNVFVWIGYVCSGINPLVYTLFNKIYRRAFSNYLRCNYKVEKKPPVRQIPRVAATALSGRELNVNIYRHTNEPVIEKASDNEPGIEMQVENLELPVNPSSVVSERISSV
# Description: Displacement of [125]DOI from human recombinant full length 5HT2C receptor expressed in HEK293E cells
# [9] = molecular target: D(2) dopamine receptor (Rattus norvegicus, UniProt P61169); test: biochemical
# D(2) dopamine receptor, sequence (P61169 whole entry): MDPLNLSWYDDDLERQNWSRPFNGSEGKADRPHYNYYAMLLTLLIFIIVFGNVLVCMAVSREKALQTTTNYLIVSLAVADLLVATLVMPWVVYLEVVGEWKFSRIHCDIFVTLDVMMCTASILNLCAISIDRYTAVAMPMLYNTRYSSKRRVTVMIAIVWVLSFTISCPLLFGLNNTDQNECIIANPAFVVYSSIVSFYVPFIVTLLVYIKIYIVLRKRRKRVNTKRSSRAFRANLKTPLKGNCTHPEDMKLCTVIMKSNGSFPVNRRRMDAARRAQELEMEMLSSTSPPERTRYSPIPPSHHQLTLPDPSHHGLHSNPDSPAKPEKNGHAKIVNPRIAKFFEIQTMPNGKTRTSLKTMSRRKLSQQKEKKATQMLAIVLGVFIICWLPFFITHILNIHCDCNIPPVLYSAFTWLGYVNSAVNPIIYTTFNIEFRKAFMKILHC
# Description: Displacement of [3H]-N-methylspiperone from rat recombinant dopamine D2 short receptor expressed in CHO cells
# [10] = species: Homo sapiens; test: Effect on insomnia patient assessed as restoration of sleep architecture; type: functional, organism-based
# [11] = species: Homo sapiens; test: Antipsychotic activity in acute exacerbated schizophrenia patient; type: functional, organism-based
# [12] = molecular target: T6, 5-hydroxytryptamine receptor 1A (Homo sapiens) (UniProt P08908); test: Inhibition of human 5HT1A receptor at 100 nM
# T6 sequence (whole entry): T1 sequence (P08908 whole entry)
# [13] = molecular target: T7, Alpha-1A adrenergic receptor (Homo sapiens) (UniProt P35348); test: Inhibition of adrenergic alpha1A receptor (unknown origin) at 100 nM
# T7 sequence (whole entry): T3 sequence (P35348 whole entry)
# [14] = molecular target: T8, Alpha-1B adrenergic receptor (Homo sapiens) (UniProt P35368); test: Inhibition of adrenergic alpha1B receptor (unknown origin) at 100 nM
# T8 sequence (whole entry): T2 sequence (P35368 whole entry)
# [15] = molecular target: D(1A) dopamine receptor (Homo sapiens) (UniProt P21728); test: Inhibition of human dopamine D1 receptor at 100 nM
# D(1A) dopamine receptor (Homo sapiens), sequence (P21728 whole entry): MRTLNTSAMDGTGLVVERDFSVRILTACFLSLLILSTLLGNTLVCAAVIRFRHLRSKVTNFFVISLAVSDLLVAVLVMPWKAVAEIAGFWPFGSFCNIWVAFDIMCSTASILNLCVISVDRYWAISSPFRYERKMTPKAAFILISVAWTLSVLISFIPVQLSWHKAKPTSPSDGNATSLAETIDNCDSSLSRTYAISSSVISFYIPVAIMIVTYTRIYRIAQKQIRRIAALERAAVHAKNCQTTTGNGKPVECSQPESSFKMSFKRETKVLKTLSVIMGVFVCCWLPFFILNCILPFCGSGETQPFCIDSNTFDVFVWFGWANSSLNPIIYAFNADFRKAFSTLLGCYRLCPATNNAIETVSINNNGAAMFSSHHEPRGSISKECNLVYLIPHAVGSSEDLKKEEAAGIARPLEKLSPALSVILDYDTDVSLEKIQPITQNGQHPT
# [16] = system: Rattus norvegicus; test: Toxicity in po dosed Sprague-Dawley rat assessed as effect on escape behaviour; type: organism-based; details: in vivo
# [17] = molecular target: Histamine H1 receptor (Homo sapiens, UniProt P35367)
# Histamine H1 receptor, sequence (P35367 whole entry): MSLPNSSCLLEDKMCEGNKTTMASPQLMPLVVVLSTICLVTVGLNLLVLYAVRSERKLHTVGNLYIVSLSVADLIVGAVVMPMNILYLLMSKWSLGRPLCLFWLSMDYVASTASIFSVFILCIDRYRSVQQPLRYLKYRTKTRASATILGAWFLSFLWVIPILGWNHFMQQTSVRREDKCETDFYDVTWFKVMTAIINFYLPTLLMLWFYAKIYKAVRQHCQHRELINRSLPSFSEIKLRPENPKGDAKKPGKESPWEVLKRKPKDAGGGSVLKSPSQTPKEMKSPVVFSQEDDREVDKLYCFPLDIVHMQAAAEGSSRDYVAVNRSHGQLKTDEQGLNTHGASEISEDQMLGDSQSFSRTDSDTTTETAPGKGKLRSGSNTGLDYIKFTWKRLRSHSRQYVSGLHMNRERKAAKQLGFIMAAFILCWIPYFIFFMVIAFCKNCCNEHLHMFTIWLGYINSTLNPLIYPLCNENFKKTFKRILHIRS
# Description: Inhibition of histamine H1 receptor (unknown origin)
# [18] = molecular target: D(2) dopamine receptor (Homo sapiens) (UniProt P14416); test: Antagonist activity at human recombinant dopamine D2 short receptor expressed in CHO cells assessed as inhibition of Eu-GTP binding at 10 uM; type: cell-based
# D(2) dopamine receptor (Homo sapiens), sequence (P14416 whole entry): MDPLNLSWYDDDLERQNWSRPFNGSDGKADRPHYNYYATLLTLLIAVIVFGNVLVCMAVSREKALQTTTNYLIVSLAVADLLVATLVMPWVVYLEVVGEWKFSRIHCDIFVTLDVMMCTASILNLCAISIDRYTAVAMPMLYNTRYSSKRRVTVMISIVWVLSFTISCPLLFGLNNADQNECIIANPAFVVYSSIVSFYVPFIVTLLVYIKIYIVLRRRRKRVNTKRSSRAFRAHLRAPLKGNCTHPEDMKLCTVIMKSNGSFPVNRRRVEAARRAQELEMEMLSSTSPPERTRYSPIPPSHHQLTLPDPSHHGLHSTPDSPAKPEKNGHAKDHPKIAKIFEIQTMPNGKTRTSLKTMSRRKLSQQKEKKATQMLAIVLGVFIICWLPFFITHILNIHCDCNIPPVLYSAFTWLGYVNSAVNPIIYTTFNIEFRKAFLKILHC
# [19] = molecular target: D(2) dopamine receptor (Homo sapiens) (UniProt P14416); test: Agonist activity at human recombinant dopamine D2 short receptor expressed in CHO cells up to 1 uM in absence of dopamine; type: cell-based
# [20] = system: Rattus norvegicus; test: Inhibition of conditioned avoidance response in po dosed Sprague-Dawley rat model after 2 hrs by electric foot shock test; type: functional
# [21] = system: Rattus norvegicus; test: Toxicity in rat step-down latency model assessed as frank catalepsy at 30 mg/kg; type: organism-based; design: dose 30 mg/kg; details: in vivo
# [22] = Lipophilicity, log D of the compound at pH 7.4; type: physicochemical; details: buffer
# [23] = Lipophilicity, log D of the compound at pH 1.7; type: physicochemical; details: buffer
# [24] = Solubility of the compound in PBS buffer at pH 7.4; type: physicochemical
# [25] = Plasma protein binding in human; type: ADME, cell-free; details: read-out: PPB (converted)
# [26] = system: MDR1; test: Permeability from apical to basolateral side in MDCK cells transfected with MDR1; type: ADME, cell-based, Canis lupus familiaris; details: dog, read-out: permeability
# [27] = system: Homo sapiens; test: Toxicity in healthy human administered once daily; type: organism-based; details: in vivo
# [28] = system: Homo sapiens; test: Toxicity in schizophrenia patient administered once daily; type: organism-based; details: in vivo
# [29] = molecular target: T9, D(4) dopamine receptor (Homo sapiens) (UniProt P21917); details: 100 nM
# T9 sequence (whole entry): T4 sequence (P21917 whole entry)
# Description: Inhibition of human dopamine D4 receptor at 100 nM
# [30] = system: MDR1; test: in vitro; details: dog, MDCK-MDR1
# Description: Efflux ratio of permeability from basolateral to apical side over apical to basolateral side indog MDCK cells expressing MDR1
# [31] = species: Homo sapiens; test: Effect on sleep maintenance insomnia patient assessed as increase in slow wave sleep
# [32] = species: Homo sapiens; test: Effect on sleep maintenance insomnia patient assessed as reduction of waking after sleep onset
# [33] = system: Rattus norvegicus; test: Inhibition of conditioned avoidance response in Sprague-Dawley rat model at 2 mg/kg, po after 2 hrs by electric foot shock test; type: functional, organism-based; design: dose 2 mg/kg
# [34] = molecular target: Sodium-dependent serotonin transporter (Homo sapiens, UniProt P31645); test: Displacement of [3H]-N-methyl-citalopram from SERT in human platelets at 100 nM after 60 mins by liquid scintillation counting analysis
# Sodium-dependent serotonin transporter, sequence (P31645 whole entry, looked up): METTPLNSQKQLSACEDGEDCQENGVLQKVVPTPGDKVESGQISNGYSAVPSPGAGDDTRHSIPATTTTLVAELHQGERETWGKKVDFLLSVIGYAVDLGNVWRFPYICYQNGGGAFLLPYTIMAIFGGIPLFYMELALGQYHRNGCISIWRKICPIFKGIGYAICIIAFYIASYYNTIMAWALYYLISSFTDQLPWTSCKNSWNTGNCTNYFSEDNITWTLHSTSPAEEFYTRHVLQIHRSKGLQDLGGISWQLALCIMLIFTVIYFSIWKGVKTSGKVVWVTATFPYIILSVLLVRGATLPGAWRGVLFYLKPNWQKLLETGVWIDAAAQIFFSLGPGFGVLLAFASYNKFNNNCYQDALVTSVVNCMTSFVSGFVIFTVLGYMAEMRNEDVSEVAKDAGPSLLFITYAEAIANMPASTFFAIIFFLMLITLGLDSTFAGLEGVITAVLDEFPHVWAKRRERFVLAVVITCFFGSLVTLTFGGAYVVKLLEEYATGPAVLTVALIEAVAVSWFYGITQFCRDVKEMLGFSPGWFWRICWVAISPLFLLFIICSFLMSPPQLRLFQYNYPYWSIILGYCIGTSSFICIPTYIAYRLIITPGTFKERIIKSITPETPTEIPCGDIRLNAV
# 5-hydroxytryptamine receptor 2A, sequence (P28223 whole entry): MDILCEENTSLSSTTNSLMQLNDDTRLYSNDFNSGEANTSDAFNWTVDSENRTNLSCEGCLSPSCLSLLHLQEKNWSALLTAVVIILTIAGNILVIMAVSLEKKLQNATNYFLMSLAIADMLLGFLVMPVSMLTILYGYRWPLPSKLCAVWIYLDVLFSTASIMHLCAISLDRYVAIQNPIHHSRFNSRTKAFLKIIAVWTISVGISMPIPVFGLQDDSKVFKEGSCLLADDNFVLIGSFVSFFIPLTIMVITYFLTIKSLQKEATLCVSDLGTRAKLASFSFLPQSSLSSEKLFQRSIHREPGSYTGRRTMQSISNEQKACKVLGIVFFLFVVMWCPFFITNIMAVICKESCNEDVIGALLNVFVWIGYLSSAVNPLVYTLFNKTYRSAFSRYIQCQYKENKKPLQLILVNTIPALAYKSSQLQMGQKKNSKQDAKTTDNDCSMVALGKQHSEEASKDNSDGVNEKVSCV
smiles,measurement,setting,value
O=C(CCCN1CC[C@H]2[C@@H](C1)c1cccc3c1N2CCO3)c1ccc(F)cc1,Ki,[1],0.89 nM
same,Ratio Ki,[2],46
same,Ki,[3],1330 nM
same,Ki,[4],104 nM
same,ED50,[5],0.25 mg/kg
same,Ki,[6],262 nM
same,Ki,[7],320 nM
same,Ki,[8],520 nM
same,Ki,[9],41 nM
CN1CCN2c3c(cccc31)[C@@H]1CN(CCCc3noc4ccccc34)CC[C@@H]12,Ki,[1],3.3 nM
same,Ratio Ki,[2],53
same,Ki,[4],294 nM
same,ED50,[5],1 mg/kg
same,Ki,[6],314 nM
same,Ki,[8],287 nM
same,Ki,[9],174 nM
CN1CCN2c3c(cccc31)[C@@H]1CN(CCCC(=O)c3ccc(F)cc3)CC[C@@H]12.Cc1ccc(S(=O)(=O)O)cc1 [LUMATEPERONE TOSYLATE],Activity,[10],Active
same,Activity,[11],Active
same,inhibition,[12],> 50%
same,inhibition,[13],> 50%
same,inhibition,[14],> 50%
same,inhibition,[15],> 50%
same,Activity,[16],Non-toxic
same,Ki,[3],1480 nM
same,Ki,[17],> 1000 nM
same,Ki,[4],31 nM
same,inhibition,[18],100%
same,Activity,[19],0%
same,ED50,[5],0.12 mg/kg
same,ED50,[20],1.5 mg/kg
same,Activity,[21],Non-toxic
same,logD,[22],3.38
same,logD,[23],0.55
same,solubility,[24],330 µg/mL
same,fraction unbound,[25],0.026
same,Papp A→B,[26],15.8 ×10⁻⁶ cm/s
same,Activity,[27],Non-toxic
same,Activity,[28],Non-toxic
same,Ki,[7],108 nM
same,inhibition,[29],> 50%
same,efflux ratio,[30],1.3
same,Activity,[31],Active
same,Activity,[32],Active
O=C(CCCN1CCC(O)(c2ccc(Cl)cc2)CC1)c1ccc(F)cc1 [HALOPERIDOL],Activity,[21],Toxic
same,Activity,[33],Active
CN1CCN2c3c(cccc31)[C@@H]1CN(CCCC(=O)N3CCC(F)(F)CC3)CC[C@@H]12,Ki,[1],> 1000 nM
same,inhibition,[34],3%
same,Ki,[8],> 1000 nM
same,Ki,[9],> 1000 nM
